pKi: −log10 of the molar value. ≈ marks a conversion by molar mass, not a printed value. Read-outs that look alike come from different tables or passages of the source.
Columns and labels:
[1] = Stability in Mueller Hinton Broth; format: physicochemical; conditions: for half-life: read-out: Stability Mueller Hinton Broth t1/2 (converted)
Stability in PBS, pH 7.4 = format: physicochemical; conditions: for half-life: pH 7.4, read-out: Stability PBS, pH 7.4 t1/2 (converted); for Stability PBS, pH 7.4 % left after 6 hrs: pH 7.4, after 6 hrs
[2] = Stability in Mouse Plasma; format: in vitro ADME; conditions: for half-life: read-out: Stability Mouse Plasma t1/2
[3] = Stability in Human Plasma; format: in vitro ADME; conditions: for half-life: read-out: Stability Human Plasma t1/2
E. coli = experiment: MIC susceptibility testing (modified NCCLS); format: cell-based; conditions: Escherichia coli, ATCC25922; Table 6, E. coli ATCC 25922; read-out: MIC
Description: (§1) The NCCLS (National Committee for Clinical Laboratory Standards), method to determine MIC's of antimicrobial compounds is modified for high-throughput screening. All stocks of tested compounds are prepared in either water or in DMSO depending on solubility. At the highest concentration, DMSO content should not exceed 0.5%. Briefly, twenty 2-fold serial dilutions of test compounds from the highest concentration is made in a 384-well microtiter plate. Each well is inoculated with testing bacteria in broth to a final concentration of approximately 1-1.5×10^6 cells/ml. Bacterial growth is determined by the increase of optical density at 600 nm using a microplate reader (Tecan SpectraFluor Plus).

S. aureus = experiment: MIC susceptibility testing (modified NCCLS); format: cell-based; conditions: Staphylococcus aureus
Description: as §1

E. faecalis = experiment: MIC susceptibility testing (modified NCCLS); format: cell-based; conditions: Enterococcus faecalis, ATCC29212; Table 6, E. faecalis ATCC 29212; read-out: MIC
Description: as §1

P. aeruginosa = experiment: MIC susceptibility testing (modified NCCLS); format: cell-based; conditions: Pseudomonas aeruginosa, ATCC27853; Table 6, P. aeruginosa ATCC 27853; read-out: MIC
Description: as §1, with “Each well is inoculated with testing bacteria in broth to a final concentration of approximately 1-1.5×10^6 cells/ml.” left out

PDF = PDF (Escherichia coli, UniProt P0A6K3); conditions: Wei et al. (2000); read-out: Ki (competitive PDF inhibitor); cited from earlier work
Chain of PDF (P0A6K3 whole entry): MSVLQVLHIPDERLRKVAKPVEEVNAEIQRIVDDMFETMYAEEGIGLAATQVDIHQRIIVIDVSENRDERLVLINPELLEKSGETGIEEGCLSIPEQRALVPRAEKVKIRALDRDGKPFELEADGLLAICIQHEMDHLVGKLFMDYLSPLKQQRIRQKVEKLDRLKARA

half-life [1]	half-life (Stability in PBS, pH 7.4)	Stability Mueller Hinton Broth % left after 6 hrs [1]	Stability Mouse Plasma % left after 10 min [2]	half-life [2]	Stability PBS, pH 7.4 % left after 6 hrs (Stability in PBS, pH 7.4)	half-life [3]	Structure (SMILES)	other results
2.9 h	3.3 h	–	–	–	–	–	CSCCC(NC=O)C(=O)NC(CC(C)C)C(=O)Oc1c(Br)cc(CO)cc1Br (centres unmarked) [NB3144, 2-(2-formylamino-4-methylsulfanyl-butyrylamino)-4-methyl-pentanoic Acid 2,6-dibromo-hydroxymethyl-phenyl Ester]	–
> 12 h	> 12 h	99%	94%	> 0.333 h	99%	> 2 h	CSCCC(NC=O)C(=O)NC(CC(C)C)C(=O)Oc1c(-c2ccccc2)cc(CO)cc1-c1ccccc1 (centres unmarked) [NB3145, 2-(2-formylamino-4-methylsulfanyl-butyrylamino)-4-methyl-pentanoic Acid 5′-hydroxymethyl-[1,1′;3′,1″]terphenyl-2′-yl Ester]	Stability Human Plasma % left after 120 min [3]: 94%
> 12 h	> 12 h	91%	–	0.148 h	98%	0.177 h	COc1cc(CO)cc(Br)c1OC(=O)C(CC(C)C)NC(=O)C(CCSC)NC=O (centres unmarked) [NB3162, 2-(2-formylamino-4-methylsulfanyl-butyrylamino)-4-methyl-pentanoic Acid 2-bromo-4-hydroxymethyl-6-methoxy-phenyl Ester]	–
> 12 h	> 12 h	95%	94%	> 0.333 h	85%	> 2 h	CSCCC(NC=O)C(=O)NC(CC(C)C)C(=O)Oc1c(C)cc(CO)cc1C (centres unmarked) [NB3165, 2-(2-formylamino-4-methylsulfanyl-butyrylamino)-4-methyl-pentanoic Acid 4-hydroxymethyl-2,6-dimethyl-phenyl Ester]	Stability Human Plasma % left after 120 min [3]: 94%
> 12 h	> 12 h	89%	88%	> 0.333 h	95%	0.533 h	CSCCC(NC=O)C(=O)NC(CC(C)C)C(=O)Oc1c(Br)cc(CO)cc1-c1ccco1 (centres unmarked) [NB3177, 2-(2-Formylamino-4-methylsulfanyl-butyrylamino)-4-methyl-pentanoic Acid 2-bromo-6furan-2-yl-4-hydroxymethyl-phenyl Ester]	–
–	–	–	–	–	–	–	CCn1cc(C(=O)O)c(=O)c2cc(F)c(N3CCNCC3)cc21 [Norfloxacin, norfloxacin, reference compound]	MIC (E. coli): 15.6 ng/mL (≈ 0.0489 µM); MIC (S. aureus; ATCC29213, Table 6, S. aureus (MS) ATCC 29213, read-out: MIC): 500 ng/mL (≈ 1.57 µM); MIC (S. aureus; ATCC33591, Table 6, S. aureus (MR) ATCC 33591, read-out: MIC): 1000 ng/mL (≈ 3.13 µM); MIC (E. faecalis): 1000 ng/mL (≈ 3.13 µM); MIC (P. aeruginosa): 500 ng/mL (≈ 1.57 µM)
–	–	–	–	–	–	–	Oc1cc(Cl)ccc1Oc1ccc(Cl)cc1Cl [Triclosan, triclosan, reference compound]	MIC (S. aureus; ATCC 11632 / MSSA): 1.95 ng/mL (≈ 0.00675 µM); MIC (S. aureus; ATCC 13301 / MSSA): 0.488 ng/mL (≈ 0.00169 µM); MIC (S. aureus; ATCC 14154 / MSSA): 1.95 ng/mL (≈ 0.00675 µM); MIC (S. aureus; ATCC 33591 / MSSA): 7.81 ng/mL (≈ 0.027 µM); MIC (S. aureus; ATCC 33592 / MSSA): 3.91 ng/mL (≈ 0.0135 µM); MIC (S. aureus; ATCC 33593 / MSSA): 0.977 ng/mL (≈ 0.00337 µM); MIC (S. aureus; ATCC 43300 / MSSA): 1.95 ng/mL (≈ 0.00675 µM); MIC (S. aureus; ATCC 700260 / MSSA): 0.244 ng/mL (≈ 0.000843 µM); MIC (S. aureus; ATCC 700698 / MSSA): 3.91 ng/mL (≈ 0.0135 µM); MIC (S. aureus; ATCC 700699 / MSSA): ≥ 4000 ng/mL; MIC (S. aureus; ATCC 700787 / MSSA): 1.95 ng/mL (≈ 0.00675 µM); MIC (S. aureus; ATCC 700788 / MSSA): 31.2 ng/mL (≈ 0.108 µM); MIC (S. aureus; ATCC 700789 / MSSA): 15.6 ng/mL (≈ 0.054 µM)
–	–	–	–	–	–	–	CCCCC(CS)C(=O)NC(CCCNC(=N)N)C(=O)Nc1ccc2ccccc2c1 (centres unmarked) [optimal inhibitor]	pKi (PDF): 7.82

From patent US20050096254A1, “Peptide deformylase activated prodrugs” (priority 2002, published 2005)
